Broadly, the IC50 is the concentration needed to halve the response being measured.

Read-outs that look alike come from different tables or passages of the source.

From patent US6288051A, “7 α-(5-methylaminopentyl)-estratrienes, process for their production, pharmaceutical preparations that contain these 7 α(5-methylaminopentyl)-estratrienes as well as their use for the production of pharmaceutical agents” (Schering Aktiengesellschaft, priority 1996, dated 2001) come the findings set out here.

The subject of experiment [1] is MVLN cells. Kind of experiment: Transactivation assay, MVLN cells transfixed with reporter gene Vit-TK-LUC. It counts as cell-based. As to conditions: Homo sapiens, read-out: IC50 [nM] MVLN cells. Here is the method: (§1) The antiestrogenic action of the compounds according to the invention was determined in transactivation assays [Demirpence, E.; Duchesne M.-J.; Badia, E.; Gagne, D. and Pons, M.: MVLN Cells: A Bioluminescent MCF-7-Derived Cell Line to Study the Modulation of Estrogenic Activity; J. Steroid. Molec. Biol. Vol. 46, No. 3, 355-364 (1993) as well as Berry, M.; Metzeger D.; Chambon, P.: Role of the Two Activating Domains of the Estrogen Receptor in the Cell-type and Promoter-context Dependent Agonistic Activity of the Anti-estrogen 4-Hydroxytamoxifen; The EMBO Journal Vol. 9, 2811-2818 (1990)].
The IC50 values for the new compounds lie in the nanomolar range. […] The HeLa cells are transfixed with human estrogen receptor-expression vector (HEGO) and Vit-TK-CAT reporter genes, and the MVLN cells are transfixed with reporter gene Vit-TK-LUC: […]
On the technique in general: A reporter such as luciferase makes a cellular process visible.

The target of experiment [2] is T1, human estrogen receptor (Homo sapiens, UniProt P03372).
T1 construct: expressed in transfected cells; host or cells: HeLa
T1 sequence (P03372 1-595): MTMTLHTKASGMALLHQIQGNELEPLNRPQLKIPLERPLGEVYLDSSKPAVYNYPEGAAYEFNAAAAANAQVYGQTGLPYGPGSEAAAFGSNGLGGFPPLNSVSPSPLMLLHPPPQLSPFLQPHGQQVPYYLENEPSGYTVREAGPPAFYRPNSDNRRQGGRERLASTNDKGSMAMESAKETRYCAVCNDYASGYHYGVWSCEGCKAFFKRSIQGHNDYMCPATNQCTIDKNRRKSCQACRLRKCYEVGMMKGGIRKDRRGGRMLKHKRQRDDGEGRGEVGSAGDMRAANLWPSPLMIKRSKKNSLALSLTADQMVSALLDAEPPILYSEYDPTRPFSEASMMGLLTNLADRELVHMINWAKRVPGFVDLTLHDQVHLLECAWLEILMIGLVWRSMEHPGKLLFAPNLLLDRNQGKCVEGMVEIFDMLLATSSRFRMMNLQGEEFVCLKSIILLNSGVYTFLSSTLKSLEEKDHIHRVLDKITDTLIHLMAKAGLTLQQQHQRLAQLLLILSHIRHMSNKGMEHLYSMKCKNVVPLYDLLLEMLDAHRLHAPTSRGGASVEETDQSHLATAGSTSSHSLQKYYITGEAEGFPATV
Kind of experiment: Transactivation assay, HeLa cells transfixed with human estrogen receptor-expression vector (HEGO) and Vit-TK-CAT reporter gene. Format: cell-based. Here is the method:
as §1
The HeLa cells are transfixed with human estrogen receptor-expression vector (HEGO) and Vit-TK-CAT reporter genes, and the MVLN cells are transfixed with reporter gene Vit-TK-LUC: […]

Experiment [3] concerns DMBA-induced breast cancer. Briefly: DMBA-induced breast cancer in rats. It counts as in vivo, rat. As to conditions: oral, 3 mg/kg/day (FIG. 4). From the text:
2.2 DMBA*-induced breast cancer in rats
2.2. Influencing Tumor Growth in the […] Model in Rats (DMBA Tumor Model)
*9,10-Dimethyl-1,2-benanthracene
The growth of the DMBA-induced breast neoplasm of rats is largely dependent on estrogens and prolactin. Active antiestrogens, antigestagens, and aromatase inhibitors result in the inhibition of tumor growth, and substances that have antigonadotropic and androgenic properties also exert a tumor-inhibiting action.
45-47-day-old female rats (Sprague-Dawley, breeder ZiH or Mollegard), 8-10 animals per group.
The animals receive 10 mg of DMBA orally on a one-time basis. Then, the animals are examined weekly by palpation for tumor development. Six to 10 weeks after DNBA treatment, approximately 1 to 10 tumors develop per animal. The tumor size is determined once a week with the aid of a sliding gauge. If at least one tumor has reached a specific size (150 mm^2 of tumor surface area), an ovariectomy is performed on the animals, or the treatment of the animals with the test substance begins. The treatment is carried out in most cases daily for a period of about 28 days (for details on execution, see Test Plan). The tumor size is subsequently determined once a week.
The total tumor size per animal is determined before the beginning of treatment (initial values). For each group, the average values of the percentage changes of the tumor size relative to the initial value are then calculated. In addition, the percentage of animals per group is determined, whose tumors in each case: (1) have totally disappeared (total regression); partially disappeared (partial regression); (3) are unchanged (no change); or (4) are further enlarged (enlargement).
The values that are found are tested for significance in the Dunnett Test and are plotted graphically.

In the case of `CN(CCCCC[C@@H]1Cc2cc(O)ccc2[C@H]2CC[C@@]3(C)[C@@H](CC[C@]3(C)O)[C@H]12)CCCSCCCC(F)(F)C(F)(F)F` [Example 2, 17α-Methyl-7α-{5-[N-methyl-N-3-(4,4,5,5,5-pentafluoropentyl-thio)-propylamino]-pentyl}-estra-1,3,5(10)-triene-3,17β-diol], the IC50 in experiment [1] (MVLN) turned out to be 0.6 nM; in experiment [2] it was 0.2 nM.
Consider `CN(CCCCC[C@@H]1Cc2cc(O)ccc2[C@H]2CC[C@]3(C)[C@@H](O)CC[C@H]3[C@H]12)CCS(=O)(=O)CCCC(F)(F)C(F)(F)F` [Example 4, 7α-{5-[N-Methyl-N-2-(4,4,5,5,5-pentafluoropentanesulfonyl)-ethylamino]-pentyl}-estra-1,3,5(10)-triene-3,17β-diol], for which the figures for the IC50 in experiment [1] (MVLN) and in experiment [2] were 1.3 nM and 0.16 nM, respectively.
For the compound `C[C@]12CC[C@@H]3c4ccc(O)cc4C[C@@H](CCCCCCCCC[S+]([O-])CCCC(F)(F)C(F)(F)F)[C@H]3[C@@H]1CC[C@@H]2O` (stereo partly drawn) [Reference, 7α-[9-(4,4,5,5,5-pentafluoropentanesulfinyl)-nonyl]-estra-1,3,5(10)-triene-3,17β-diol, reference compound], in experiment [1] (MVLN cells, Vit-TK-LUC), the IC50 worked out at 6 nM. In experiment [3], the “inhibition of tumor growth” value was “only a slight action”.
For the compound `C#C[C@]1(O)CC[C@H]2[C@@H]3[C@H](CCCCCN(C)CCCSCCCC(F)(F)C(F)(F)F)Cc4cc(O)ccc4[C@H]3CC[C@@]21C` [Example 3, 17α-Ethinyl-7α-{5-[N-methyl-N-3-(4,4,5,5,5-pentafluoropentylthio)-propylamino]-pentyl}-estra-1,3,5(10)-triene-3,17β-diol], the IC50 in experiment [1] (MVLN) is 0.6 nM; in experiment [2], 1 nM.
In the same order, the values of `CN(CCCCC[C@@H]1Cc2cc(O)ccc2[C@H]2CC[C@]3(C)[C@@H](O)CC[C@H]3[C@H]12)CCC[S+]([O-])CCCC(F)(F)C(F)(F)F` (stereo partly drawn) [Example 6, 7α-{5-[N-Methyl-N-3-(4,4,5,5,5-pentafluoropentanesulfinyl)-propylamino]-pentyl}-estra-1,3,5(10)-triene-3,17β-diol] are 1 nM and 0.1 nM.
The corresponding values for `CN(CCCCC[C@@H]1Cc2cc(O)ccc2[C@H]2CC[C@]3(C)[C@@H](O)CC[C@H]3[C@H]12)CCCS(=O)(=O)CCCC(F)(F)C(F)(F)F` [Example 5, 7α-{5-[N-Methyl-N-3-(4,4,5,5,5-pentafluoropentanesulfonyl)-propylamino]-pentyl}-estra-1,3,5(10)-triene-3,17β-diol] are 0.66 nM and 0.3 nM.
